Measured values reported in PMC8434099, “Selected Drug-Likeness Properties of 2-Arylidene-indan-1,3-dione Derivatives—Chemical Compounds with Potential Anti-Cancer Activity” (Molecules, 2021).

What was measured:
[1] = test system: Human Serum Albumin (HSA); experiment: Binding to albumin, fluorescence quenching; details: calculated from association constant KS for albumin concentration in blood of 44 mg/mL (660 μM); for fraction unbound: human, human serum albumin solution (10 µM HSA), pH 7.4, read-out: free fraction (albumin)
Description: Fluorescence lifetime and fluorescence intensity of HSA solutions were measured using the time-resolved Fluorescence Spectrophotometer Life Spec II (Edinburgh Instruments Ltd., Livingston, UK) with the sub-nanosecond pulsed EPLED diode emitting a light of the wavelength 280 nm. The spectrometer was equipped with electronically cooled photomultiplier Hamamatsu R928 connected with TCC900 PC Card, which incorporates all the electronic modules required for Time-Correlated Single Photon Counting (TCSPC). The fluorescence decays were recorded at an emission wavelength of 350 nm. The data were fitted with an exponential decay to obtain total fluorescence intensity and lifetime. Measurements were performed at room temperature using quartz cuvettes 3.5 × 10 mm. The exposure time of the sample was 30 s. A spectrophotometer Jasco V-550 was used for absorption measurements.
Human Serum Albumin (HSA, 97%) was purchased from Sigma Aldrich. For the fluorescence quenching measurements, the 10 µM PBS solution of HSA at pH 7.4 was prepared, and 10 mM stock solutions of studied compounds were prepared in DMSO (dimethylsulfoxide). The final concentration of studied compounds in HSA solution varied between 0 and 70 µM.
Fluorescence quenching of albumin can be described by the Stern–Volmer Equation [21]: (3) F0/F=KSV[Q]+1, where F0 and F are the fluorescence intensities in the absence and presence of quencher, respectively, [Q] is the concentration of quencher, and KSV is the Stern–Volmer quenching constant.
Due to the fact that a quencher can absorb light at the excitation and/or emission wavelengths, the measured intensity should be corrected according to the Formula [22]:(4) Fobserved=Fcorrect×10^−Aex×dex/2−Aem×dem/2, where Fobserved is the measured fluorescence, Fcorrect is the fluorescence that would be measured in the absence of absorption effect, Aex and Aem are the absorbances of ligand at the excitation (280 nm) and emission wavelength (350 nm), respectively, and dex and dem are the cuvette pathlength in the excitation and emission direction (0.35 cm and 1 cm, respectively).
As the fluorophore can be quenched by collisions or by complex formation with the quencher, there are two types of quenching: dynamic and static. They can be distinguished by lifetime measurements. […] If the quenching is known to be dynamic, then:(5) F0/F=KD[Q]+1=τ0/τ, where τ0 and τ are the lifetimes in the absence and presence of quencher, and KD is the dynamic quenching constant.
In many cases, both static and dynamic quenching occurs for the same fluorophore, then modified Stern–Volmer equation has the form:(6) F0/F=(KD[Q]+1)(KS[Q]+1)=τ0/τ(KS[Q]+1),
The dynamic portion of the quenching (KD[Q] + 1), according to Equation (5), can be determined by lifetime measurements. The portion (KS[Q] + 1) relates to static quenching, and KS is the association constant, which is given by:(7) KS=[F−Q]/[F][Q], where [F−Q] is the concentration of complex fluorophore–quencher, [F] is the concentration of uncomplexed fluorophore (concentration of free HSA molecules), and [Q] is the concentration of quencher.
In this study, the tested compounds were added to the HSA solution, and the fluorescence intensity and lifetime at 350 nm were measured for varying concentrations of ligands. On the basis of absorbance measurements of ligands at 280 nm and 350 nm, the correct fluorescence intensities were estimated using Equation (4). Then, the Stern–Volmer constants, dynamic quenching constants, and association constants of studied compounds were determined using Equations (3), (5) and (6), respectively.
Knowing the value of association constant KS, it is possible to determine the theoretical percentage of the bound and free fraction of the drug for the physiological concentration of albumin. […]

[2] = Chromatographic (RP-HPLC) examination of lipophilicity, Snyder–Soczewiński model; type: physicochemical; details: for logkw (ACN) / logkw (MeOH): RP-HPLC, extrapolated Snyder–Soczewiński curve; for logkw (ACN) / −S (ACN): acetonitrile as organic modifier; for logkw (MeOH) / −S (MeOH): methanol as organic modifier; for Δ = |logkw-MeOH − logkw-ACN|: difference of logkw between modifiers; for −S (ACN) / −S (MeOH): slope of the Snyder–Soczewiński regression curve; for Compliance with the lipophilicity assumption of the Lipiński’s rule (logkw below 5): analyses using methanol as a modifier
Description: The chromatographic analysis was carried out on a Shimadzu device equipped with a pump system (LC-20AD model), a detector with a diode bench (SPD-M20A model), a degasser (DGU-20A 5R model), a chromatographic oven (CTO-10AS VP), autosampler (SIL-20AC HT model), and chromatographic column (LiChrospher 100 RP-18, 5 μm, Poznań, Poland). Analyses were performed, leading to a multicratic elution. The mobile phase was methanol (J. T. Backer, Phillipsburg, NJ, USA) or acetonitrile (J. T. Backer) and water (Hydrolab, HPL5UV model, Straszyn, Poland) in different volume ratios. In individual analyses, the concentration of the organic modifier expressed as a […] was 0.75–0.95 with a constant step of 0.05. The test compounds were dissolved in methanol. The injection volume was 10 µL. The flow was set at 1 mL/min, the temperature of the chromatography oven at 25 °C, and the detector temperature at 2 °C higher than the ambient temperature. Compounds were detected in the range 190–800 nm. All samples were tested in duplicate at least. Column dead time (tM) was determined using uracil (Sigma Aldrich). The retention coefficient was calculated using the following formula:(1) k=tR/tM−1, where tR is the retention time of the test compound in a given eluent composition, and tM is the chromatographic column dead time.
The value of lipophilicity was determined using the linear dependence of the decimal logarithm from the retention coefficient (logk) and the concentration of the organic modifier in the mobile phase, which was expressed as a volume fraction. For this purpose, the following formula was used:(2) logk=logkw+Sφ, where logk is the decimal logarithm of the retention coefficient, logkw is the value obtained by extrapolating the curve, S is the slope of the regression curve, and φ is the volume fraction of the organic modifier.
The coefficient of determination (R^2) was also calculated for the prepared curves.

A549 cells = experiment: Antiproliferative activity, MTT protocol; type: cell-based, human; details: 0.01 mg/mL, 72 h, relative to control culture
Description: (§1) Mouse melanoma (B16F10), human lung carcinoma (A549), and human cervix (HeLa) cell lines (kindly gifted by Prof. Tomasz Drewa, a Chair of Urology, Department of Regenerative Medicine, Collegium Medicum, Nicolaus Copernicus University, Bydgoszcz, Poland) were cultivated at 37 °C, controlled CO2 atmosphere (Binder, Tuttlingen, Germany), and high humidity with RPMI cell culture medium (with L-glutamine and sodium bicarbonate, Sigma-Aldrich), supplemented with 10% of fetal bovine serum (FBS, Biowest, Nuaillé, France), as well as antibiotics (penicillin, streptomycin) and antimycotics (amphotericin B) (Sigma-Aldrich). Combretastatin A4 (CA4), doxorubicin (DoX), and […] were purchased from Sigma-Aldrich.
(§2) Cells were counted with an automated cell counter (Countess® II FL, Invitrogen by Thermo Fisher Scientific Inc., Waltham, MA, USA). A number of 1 × 10^3 (B16F10, A549) or 2.5 × 10^3 cells were plated in each well of 96-well plate (Nunc Edge 2F, Thermo Fisher Scientific Inc.) and left for 24 h incubation prior to drug administration. After this period, the medium was replaced with a fresh medium containing the drugs (at final concentration of 0.01 mg/mL) and left for incubation for the next 72 h. A solution of thiazol blue tetrazolium (MTT, Sigma-Aldrich) was prepared in PBS at concentration of 5 mg/mL and administrated to the cell culture medium at the volume of 10% of the initial medium volume. After 2 h of incubation, the medium was removed, and crystals of formazan were solubilized in isopropanol (Sigma-Aldrich). Absorbance readout was conducted using plate reader Multiskan Spectrum (Thermo Electron Corporation, Waltham, MA, USA) at 570 nm.
(§3) Combretastatin A4 (CA4), doxorubicin (DX), and […] were employed as positive controls. Biological evaluation was performed as three independent experiments; mean response and standard deviation were calculated using Excel software (v. 2013, Microsoft Corporation, Redmond, WA, USA).

HeLa cells = experiment: Antiproliferative activity, MTT protocol; type: cell-based, human; details: 0.01 mg/mL, 72 h
Description: as §1, §2, §3

SMILES: O=C1C(=Cc2ccccc2)C(=O)c2ccccc21 [Compound 3A, 2-benzylidene-1H-indene-1,3(2H)-dione]
- bound fraction (albumin) [1]: 97%
- fraction unbound [1]: 0.03
- logkw (ACN) [2]: 2.2433
- logkw (MeOH) [2]: 3.3210
- Δ = |logkw-MeOH − logkw-ACN| [2]: 1.0777
- −S (ACN) [2]: 2.4449
- −S (MeOH) [2]: 3.3278

SMILES: CN(C)c1ccc(C=C2C(=O)c3ccccc3C2=O)cc1 [Compound 3B, 2-{[4-(dimethylamino)phenyl]methylidene}-1H-indene-1,3(2H)-dione]
- bound fraction (albumin) [1]: 94%
- fraction unbound [1]: 0.06
- logkw (ACN) [2]: 2.2394
- logkw (MeOH) [2]: 3.2790
- Δ = |logkw-MeOH − logkw-ACN| [2]: 1.0396
- −S (ACN) [2]: 2.3613
- −S (MeOH) [2]: 3.1597

SMILES: COc1ccc(C=C2C(=O)c3ccccc3C2=O)cc1 [Compound 3C, 2-(4-methoxybenzylidene)-1H-indene-1,3(2H)-dione]
- bound fraction (albumin) [1]: 94%
- fraction unbound [1]: 0.06
- logkw (ACN) [2]: 2.3042
- logkw (MeOH) [2]: 3.3554
- Δ = |logkw-MeOH − logkw-ACN| [2]: 1.0512
- −S (ACN) [2]: 2.4879
- −S (MeOH) [2]: 3.2782

SMILES: Cc1ccc(Oc2ccc(C=C3C(=O)c4ccccc4C3=O)cc2)cc1 [Compound 3D, 2-{[4-(4-methylphenoxy)phenyl]methylidene}-1H-indene-1,3(2H)-dione]
- bound fraction (albumin) [1]: 97%
- fraction unbound [1]: 0.03
- logkw (ACN) [2]: 3.5726
- logkw (MeOH) [2]: 5.6763
- Compliance with the lipophilicity assumption of the Lipiński’s rule (logkw below 5) [2]: do not meet this basic assumption of the Lipiński’s rule
- Δ = |logkw-MeOH − logkw-ACN| [2]: 2.1037
- −S (ACN) [2]: 3.5570
- −S (MeOH) [2]: 5.4798
- Inhibition of development and division of A549 cells (in words) (A549 cells): most strongly inhibited

SMILES: COc1ccc(C=C2C(=O)c3ccccc3C2=O)cc1O [Compound 3E, 2-[(3-hydroxy-4-methoxyphenyl)methylidene]-1H-indene-1,3(2H)-dione]
- bound fraction (albumin) [1]: 97%
- fraction unbound [1]: 0.03
- logkw (ACN) [2]: 1.5356
- logkw (MeOH) [2]: 2.2321
- Δ = |logkw-MeOH − logkw-ACN| [2]: 0.6965
- −S (ACN) [2]: 1.9201
- −S (MeOH) [2]: 2.4114

SMILES: COc1ccc2c(OC)ccc(C=C3C(=O)c4ccccc4C3=O)c2c1 [Compound 3G, 2-[(4,7-dimethoxynaphthalen-1-yl)methylidene]-1H-indene-1,3(2H)-dione]
- bound fraction (albumin) [1]: 88%
- fraction unbound [1]: 0.12
- logkw (ACN) [2]: 2.8533
- Δ = |logkw-MeOH − logkw-ACN| [2]: 1.7531
- −S (ACN) [2]: 2.8762
- Inhibition of development and division of A549 cells (in words) (A549 cells): most strongly inhibited
- Number of HeLa cells compared to the control culture (HeLa cells): 7.15 ± 3.12%
- Effect on HeLa cells (in words) (HeLa cells; relative to control culture): more effective than the control compounds

SMILES: O=C1C(=Cc2ccoc2)C(=O)c2ccccc21 [Compound 3H, 2-[(furan-3-yl)methylidene]-1H-indene-1,3(2H)-dione]
- bound fraction (albumin) [1]: 95%
- fraction unbound [1]: 0.05
- logkw (ACN) [2]: 1.9162
- logkw (MeOH) [2]: 2.5521
- Δ = |logkw-MeOH − logkw-ACN| [2]: 0.6359
- −S (ACN) [2]: 2.2011
- −S (MeOH) [2]: 2.6243

SMILES: O=C1C(=Cc2ccc(N(c3ccccc3)c3ccccc3)cc2)C(=O)c2ccccc21 [Compound 3I, 2-{[4-(diphenylamino)phenyl]methylidene}-1H-indene-1,3(2H)-dione]
- bound fraction (albumin) [1]: 83%
- fraction unbound [1]: 0.17
- logkw (ACN) [2]: 3.8489
- logkw (MeOH) [2]: 5.3524
- Compliance with the lipophilicity assumption of the Lipiński’s rule (logkw below 5) [2]: do not meet this basic assumption of the Lipiński’s rule
- Δ = |logkw-MeOH − logkw-ACN| [2]: 1.5035
- −S (ACN) [2]: 3.7589
- −S (MeOH) [2]: 5.0483

SMILES: O=C1C(=Cc2ccc(O)cc2)C(=O)c2ccccc21 [Compound 3J, 2-[(4-hydroxyphenyl)methylidene]-1H-indene-1,3(2H)-dione]
- bound fraction (albumin) [1]: 96%
- fraction unbound [1]: 0.04
- logkw (MeOH) [2]: 2.3814
- Δ = |logkw-MeOH − logkw-ACN| [2]: 1.3880
- −S (MeOH) [2]: 2.5802

SMILES: O=C1C(=CC2=Cc3cc(O)ccc3OC2)C(=O)c2ccccc21 [Compound 3K, 2-[(6-hydroxy-2H-1-benzopyran-3-yl)methylidene]-1H-indene-1,3(2H)-dione]
- bound fraction (albumin) [1]: 92%
- fraction unbound [1]: 0.08
- logkw (ACN) [2]: 1.7720
- logkw (MeOH) [2]: 2.9717
- Δ = |logkw-MeOH − logkw-ACN| [2]: 1.1997
- −S (ACN) [2]: 2.1213
- −S (MeOH) [2]: 3.0667
